From ChEMBL document CHEMBL1201862, “PubChem BioAssay data set” (2004)
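96-well plates; 48 h exposure; 5 concentrations. Endpoints by linear interpolation between flanking doses. Not reached: highest tested concentration assigned. The concentration for 50% growth inhibition is given as GI50.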 The source made the active and inactive calls. Cut-off read from the data, not from the text of the source: active = GI50 up to about 1.1 µM and inactive = higher.

Assays:
Test in all cases: inhibition of tumour cell growth, NCI panel, 48 h
[1] = system: M14
[2] = system: T47D
[3] = system: IGROV-1
[4] = system: NCI-H522
[5] = system: U-251
[6] = system: MDA-MB-231
[7] = system: K562
[8] = system: LOX IMVI
[9] = system: SF-295
[10] = system: NCI-H23
[11] = system: 786-0
[12] = system: NCI-H226
[13] = system: Malme-3M
[14] = system: MOLT-4
[15] = system: SK-MEL-5
[16] = system: SF-268
[17] = system: Hs-578T
[18] = system: SW-620
[19] = system: OVCAR-3
[20] = system: MDA-N

| Structure (SMILES) | GI50 [1] | GI50 [2] | GI50 [3] | GI50 [4] | GI50 [5] | GI50 [6] | GI50 [7] | GI50 [8] | GI50 [9] | GI50 [10] | GI50 [11] | GI50 [12] | GI50 [13] | GI50 [14] | GI50 [15] | GI50 [16] | GI50 [17] | GI50 [18] | GI50 [19] | GI50 [20] |
| --- | --- | --- | --- | --- | --- | --- | --- | --- | --- | --- | --- | --- | --- | --- | --- | --- | --- | --- | --- | --- |
| N=C(c1ccc(-c2cn3cc(C(=N)N4CCCC4)ccc3n2)cc1)N1CCCC1 | > 100 µM (inactive) | > 100 µM (inactive) | > 100 µM (inactive) | > 100 µM (inactive) | > 100 µM (inactive) | > 100 µM (inactive) | > 100 µM (inactive) | > 100 µM (inactive) | > 100 µM (inactive) | > 100 µM (inactive) | > 100 µM (inactive) | > 100 µM (inactive) | > 100 µM (inactive) | > 100 µM (inactive) | > 100 µM (inactive) | > 100 µM (inactive) | > 100 µM (inactive) | > 100 µM (inactive) | > 100 µM (inactive) | > 100 µM (inactive) |
| CC(ON(C(c1ccccc1)C(C)C)C(C)(C)C)c1ccccc1 (centres undefined) | 22.7 µM (inactive) | 25.9 µM (inactive) | 23.1 µM (inactive) | 26.5 µM (inactive) | 17 µM (inactive) | 21.1 µM (inactive) | 18.9 µM (inactive) | 18.4 µM (inactive) | 14.9 µM (inactive) | 18.7 µM (inactive) | 16.4 µM (inactive) | 19 µM (inactive) | 38.3 µM (inactive) | 15 µM (inactive) | 14.4 µM (inactive) | 24.4 µM (inactive) | 29 µM (inactive) | 16.2 µM (inactive) | 16.4 µM (inactive) | 25.8 µM (inactive) |
| C/C(=N\Nc1nc2cc(C(F)(F)F)ccc2s1)c1ccccn1 | 0.282 µM (active) | 0.239 µM (active) | 0.123 µM (active) | 0.111 µM (active) | 0.448 µM (active) | 0.0555 µM (active) | 0.266 µM (active) | 0.287 µM (active) | 0.408 µM (active) | 0.452 µM (active) | 0.34 µM (active) | 0.124 µM (active) | 0.0622 µM (active) | 0.0264 µM (active) | 0.338 µM (active) | 0.333 µM (active) | 1.91 µM (inactive) | 0.102 µM (active) | 0.826 µM (active) | 1.06 µM (active) |
| CCC(/C=C/c1ccccc1)=N\NC(=S)N/N=C(/C=C/c1ccccc1)CC | 46.1 µM (inactive) | 35.9 µM (inactive) | 55.8 µM (inactive) | 30.5 µM (inactive) | 18.1 µM (inactive) | > 100 µM (inactive) | 19.6 µM (inactive) | 21.3 µM (inactive) | 87.7 µM (inactive) | 84.3 µM (inactive) | 48 µM (inactive) | 32.2 µM (inactive) | 90.8 µM (inactive) | 5.51 µM (inactive) | 23 µM (inactive) | 12.8 µM (inactive) | > 100 µM (inactive) | > 100 µM (inactive) | 22.9 µM (inactive) | 58.1 µM (inactive) |
| O=C1Nc2ccc(S(=O)(=O)NCCO)cc2/C1=C1/Nc2ccccc2C1=O | > 100 µM (inactive) | 4.56 µM (inactive) | 1.04 µM (active) | 1.86 µM (inactive) | 3.16 µM (inactive) | 12 µM (inactive) | 4.28 µM (inactive) | 42 µM (inactive) | 42 µM (inactive) | 28.4 µM (inactive) | 9.31 µM (inactive) | > 100 µM (inactive) | 40.8 µM (inactive) | 7.06 µM (inactive) | 12.7 µM (inactive) | 9.59 µM (inactive) | 6.73 µM (inactive) | 11.9 µM (inactive) | 4.06 µM (inactive) | > 100 µM (inactive) |
| OC(C1CCC=NN1C(O)(C(F)(F)F)C(F)(F)F)(C(F)(F)F)C(F)(F)F (centres undefined) | > 10 µM (inactive) | > 10 µM (inactive) | > 10 µM (inactive) | > 10 µM (inactive) | > 10 µM (inactive) | > 10 µM (inactive) | > 10 µM (inactive) | > 10 µM (inactive) | > 10 µM (inactive) | > 10 µM (inactive) | > 10 µM (inactive) | > 10 µM (inactive) | > 10 µM (inactive) | > 10 µM (inactive) | > 10 µM (inactive) | > 10 µM (inactive) | > 10 µM (inactive) | – | > 10 µM (inactive) | > 10 µM (inactive) |
| O=[N+]([O-])c1cc2c(c([N+](=O)[O-])c1)NCc1ccccc1O2 | – | > 100 µM (inactive) | > 100 µM (inactive) | > 100 µM (inactive) | 41.2 µM (inactive) | > 100 µM (inactive) | > 10 µM (inactive) | > 100 µM (inactive) | > 100 µM (inactive) | > 100 µM (inactive) | 43.4 µM (inactive) | > 100 µM (inactive) | > 100 µM (inactive) | 59.2 µM (inactive) | > 100 µM (inactive) | > 100 µM (inactive) | 70.8 µM (inactive) | > 100 µM (inactive) | > 100 µM (inactive) | > 100 µM (inactive) |
| Cc1ccc(/C=C2\Cc3cc(C)c(C)cc3C2=O)c(C(=O)O)c1 | – | 43.3 µM (inactive) | 37.8 µM (inactive) | 22.1 µM (inactive) | 26.1 µM (inactive) | 28.2 µM (inactive) | 44.1 µM (inactive) | 31 µM (inactive) | 33.5 µM (inactive) | > 10 µM (inactive) | 40.2 µM (inactive) | 19.3 µM (inactive) | 42.1 µM (inactive) | 34.3 µM (inactive) | 29.1 µM (inactive) | 24.3 µM (inactive) | 37.9 µM (inactive) | 34.6 µM (inactive) | 37.9 µM (inactive) | 29.6 µM (inactive) |
| O=C1CSC(c2cccc(Oc3ccccc3)c2)N1c1ccc(Cl)cc1 (centres undefined) | 15 µM (inactive) | 10.2 µM (inactive) | – | 16.3 µM (inactive) | 31 µM (inactive) | 27.4 µM (inactive) | 15.7 µM (inactive) | 18 µM (inactive) | 31 µM (inactive) | 25.5 µM (inactive) | 31.8 µM (inactive) | 32.8 µM (inactive) | 20.4 µM (inactive) | 13.6 µM (inactive) | 11.9 µM (inactive) | 30.3 µM (inactive) | 32.9 µM (inactive) | 33.6 µM (inactive) | 39.4 µM (inactive) | 19.4 µM (inactive) |
| OCCOc1ccccc2cccc1-2 | > 100 µM (inactive) | 47.1 µM (inactive) | > 100 µM (inactive) | > 100 µM (inactive) | > 100 µM (inactive) | > 100 µM (inactive) | 84.7 µM (inactive) | > 100 µM (inactive) | > 100 µM (inactive) | > 100 µM (inactive) | > 100 µM (inactive) | > 100 µM (inactive) | > 100 µM (inactive) | – | > 100 µM (inactive) | > 100 µM (inactive) | > 100 µM (inactive) | > 100 µM (inactive) | > 100 µM (inactive) | > 100 µM (inactive) |
| CCN(CC)c1nc(N(C)C)c2ccc(OC)cc2n1 | 8.75 µM (inactive) | 17.2 µM (inactive) | 23.2 µM (inactive) | 11.7 µM (inactive) | 20.2 µM (inactive) | 17.1 µM (inactive) | 14 µM (inactive) | 17.1 µM (inactive) | 17.2 µM (inactive) | 15.1 µM (inactive) | 17.5 µM (inactive) | 14.2 µM (inactive) | 18.3 µM (inactive) | 3.49 µM (inactive) | 11.6 µM (inactive) | 32.3 µM (inactive) | 39.9 µM (inactive) | 7.08 µM (inactive) | – | 8.49 µM (inactive) |
